Reference: ChEMBL document CHEMBL3272144, “Application of the Free-Wilson technique to structurally related series of homologues. Quantitative structure-activity relationship studies of narcotic analgetics” (1977)

Species: Mus musculus
Assay: Analgesic activity in mouse by hot-plate method
Type: functional

Row | SMILES | log(1/C)
1 | C[C@H]1C2Cc3ccc(O)cc3[C@@]1(C)CCN2C | 2.71
2 | CC[C@@]12CCN(C)C(Cc3ccc(O)cc31)[C@H]2C | 3.92
3 | C[C@H]1C2Cc3ccc(OC(=O)c4cccnc4)cc3[C@@]1(C)CCN2CCc1ccccc1 | 3.68
4 | COc1ccc2c(c1)[C@@]1(C)CCN(CCc3ccccc3)C(C2)[C@@H]1C | 2.66
5 | COc1ccc2c(c1)[C@@]1(c3ccccc3)CCN(C)C(C2)[C@H]1C | 2.14
6 | COc1ccc2c(c1)[C@@]1(C)CCN(C)C(C2)[C@@H]1C | 1.87
7 | CC(C)=CCN1CC[C@]2(C)c3cc(O)ccc3CC1[C@H]2C | 1.7
8 | CC(C)=CCN1CC[C@]2(C)c3cc(O)ccc3CC1[C@@H]2C | 1.53
9 | COc1ccc2c(c1)[C@@]1(C)CCN(C)C(C2)[C@@]1(C)O | 1.48
10 | CCCCC(=O)Oc1ccc2c(c1)[C@@]1(c3ccccc3)CCN(C)C(C2)[C@H]1C | 2.78
11 | CC[C@@]12CCN(CCc3ccccc3)C(Cc3ccc(O)cc31)C2 (mixture of isomers) | 3.66
12 | CC(=O)Oc1ccc2c(c1)[C@@]1(C)CCN(CCc3ccccc3)C(C2)[C@@H]1C (mixture of isomers) | 3.61
13 | CCC[C@@]12CCN(C)C(Cc3ccc(O)cc31)[C@H]2C (mixture of isomers) | 3.45
14 | C[C@@H]1C2CCN(CCc3ccccc3)C1Cc1ccc(O)cc12 (mixture of isomers) | 3.21
15 | CC[C@@H]1C2Cc3ccc(O)cc3[C@@]1(C)CCN2C (mixture of isomers) | 3.07
16 | C[C@@]12CCN(CCc3ccccc3)C(Cc3ccc(O)cc31)[C@@H]2O (mixture of isomers) | 2.99
17 | CCC[C@@]12CCN(CCc3ccccc3)C(Cc3ccc(O)cc31)[C@@H]2C (mixture of isomers) | 2.92
18 | CC[C@@]12CCN(C)C(Cc3ccc(OC(C)=O)cc31)[C@]2(C)OC(C)=O (mixture of isomers) | 2.82
19 | CC[C@@]12CCN(C)C(Cc3ccc(O)cc31)[C@]2(C)OC(C)=O (mixture of isomers) | 2.78
20 | CC(=O)Oc1ccc2c(c1)[C@@]1(C)CCN(C)C(C2)[C@@H]1C (mixture of isomers) | 2.72
21 | CC(=O)Oc1ccc2c(c1)[C@@]1(C)CCN(C)C(C2)[C@]1(C)OC(C)=O (mixture of isomers) | 2.66
22 | CC[C@H]1C2Cc3ccc(O)cc3[C@@]1(CC)CCN2CCc1ccccc1 (mixture of isomers) | 2.61

Row | SMILES | log(1/C)
23 | CC[C@@]12CCN(C)C(Cc3ccc(O)cc31)[C@@]2(C)O (mixture of isomers) | 2.61
24 | C[C@H]1C2Cc3ccc(OC(=O)c4cccnc4)cc3[C@@]1(C)CCN2CC1CC1 (mixture of isomers) | 2.59
25 | CC[C@@]12CCN(C)C(Cc3ccc(OC(C)=O)cc31)[C@@H]2OC(C)=O (mixture of isomers) | 2.53
26 | CC(=O)Oc1ccc2c(c1)[C@@]1(C)CCN(CCC(=O)c3ccccc3)C(C2)[C@@H]1C (mixture of isomers) | 2.49
27 | CCC[C@@]12CCN(C)C(Cc3ccc(O)cc31)C2 (mixture of isomers) | 2.43
28 | CC[C@H]1C2Cc3ccc(OC(C)=O)cc3[C@@]1(CC)CCN2C (mixture of isomers) | 2.36
29 | CN1CC[C@]2(C)c3cc(O)ccc3CC1[C@@]2(C)O (mixture of isomers) | 2.15
30 | CC[C@@]12CCN(C)C(Cc3ccc(O)cc31)[C@@H]2C (mixture of isomers) | 2.06
31 | C[C@]1(O)C2Cc3ccc(O)cc3[C@@]1(C)CCN2CCc1ccccc1 (mixture of isomers) | 2.05
32 | CC(=O)Oc1ccc2c(c1)[C@@]1(C)CCN(C)C(C2)C1 (mixture of isomers) | 1.98
33 | C[C@H]1C2Cc3ccccc3[C@@]1(C)CCN2CCC(=O)c1ccccc1 (mixture of isomers) | 1.93
34 | CN1CC[C@]2(C)c3cc(O)ccc3CC1[C@]2(C)O (mixture of isomers) | 1.89
35 | CC[C@@]1(O)C2Cc3ccc(OC)cc3[C@@]1(C)CCN2C (mixture of isomers) | 1.87
36 | C[C@@H]1C2Cc3ccccc3[C@@]1(C)CCN2C (mixture of isomers) | 1.82
37 | CC[C@@H]1C2Cc3ccccc3[C@@]1(CC)CCN2C (mixture of isomers) | 1.8
38 | CCC[C@@]12CCN(C)C(Cc3ccccc31)[C@H]2C (mixture of isomers) | 1.76
39 | CC[C@@]12CCN(C)C(Cc3ccc(O)cc31)[C@H]2O (mixture of isomers) | 1.67
40 | COc1ccc2c(c1)[C@@]1(C)CCN(C)C(C2)[C@]1(C)O (mixture of isomers) | 1.65
41 | COc1ccc2c(c1)[C@@]1(C)CCN(C)C(C2)C1 (mixture of isomers) | 1.64
42 | COc1ccc2c(c1)[C@@]1(C)CCN(CCc3ccccc3)C(C2)[C@@H]1O (mixture of isomers) | 1.58
43 | CC(=O)Oc1ccc2c(c1)[C@H]1CCN(C)C(C2)C1 (mixture of isomers) | 1.57
44 | CC[C@@]12CCN(C)C(Cc3ccc(OC)cc31)[C@@H]2OC(C)=O (mixture of isomers) | 1.48

Row | SMILES | log(1/C)
45 | CCC[C@@]12CCN(C)C(Cc3ccccc31)[C@@H]2C (mixture of isomers) | 1.42
46 | CC(=O)O[C@H]1C2Cc3ccccc3[C@@]1(C)CCN2C (mixture of isomers) | 1.37
47 | CN1CC[C@@]2(C)CC1Cc1ccccc12 (mixture of isomers) | 1.33
48 | c1ccc2c(c1)CC1C[C@@H]2CCN1 (mixture of isomers) | 1.31
49 | CN1CC[C@H]2CC1Cc1ccccc12 (mixture of isomers) | 1.3
50 | C[C@H]1C2Cc3ccccc3[C@@]1(C)CCN2C (mixture of isomers) | 1.27
51 | C[C@@]12CCN(CCc3ccccc3)C(Cc3ccccc31)C2 (mixture of isomers) | 1.26
52 | CN1CC[C@]2(C)c3ccccc3CC1[C@]2(C)O (mixture of isomers) | 1.16
53 | COc1ccc2c(c1)[C@@]1(C)CCN(C)C(C2)[C@H]1O (mixture of isomers) | 1.14
54 | CC[C@@]12CCN(C)C(Cc3ccc(OC)cc31)[C@@H]2O (mixture of isomers) | 0.99
55 | CN1CC[C@]2(C)c3ccccc3CC1[C@@H]2O (mixture of isomers) | 0.97
56 | CN1CC[C@]2(C)c3cc(O)ccc3CC1[C@@H]2O (mixture of isomers) | 0.9
57 | C[C@@]12CCNC(Cc3ccc(O)cc31)[C@H]2O (mixture of isomers) | 0.88
58 | CN1CC[C@]2(C)c3ccccc3CC1[C@@]2(C)O (mixture of isomers) | 0.68
59 | C[C@H]1C2Cc3ccc(O)cc3[C@@]1(C)CCN2CCc1cccs1 (mixture of isomers) | 4.04
60 | CCC[C@@H]1C2Cc3ccc(O)cc3[C@@]1(CCC)CCN2C (mixture of isomers) | 2.88
61 | CCCC[C@@]12CCN(C)C(Cc3ccc(O)cc31)C2 (mixture of isomers) | 2.17
62 | CCC(=O)Oc1ccc2c(c1)[C@@]1(C)CCN(C)C(C2)C1 (mixture of isomers) | 1.98
63 | CCCCC[C@@]12CCN(C)C(Cc3ccc(O)cc31)C2 (mixture of isomers) | 1.96
64 | CCCC(=O)Oc1ccc2c(c1)[C@@]1(C)CCN(C)C(C2)C1 (mixture of isomers) | 1.92
65 | CC(=O)O[C@@]12CCN(C)C(Cc3ccccc31)C2 (mixture of isomers) | 1.64
66 | CN1CC[C@@H]2c3cc(O)ccc3CC1[C@H]2CO (mixture of isomers) | 1.62

Row | SMILES | log(1/C)
67 | CC[C@H]1C2Cc3ccc(OC(=O)c4cccnc4)cc3[C@@]1(CC)CCN2C (mixture of isomers) | 1.54
68 | CCCCCC[C@@]12CCN(C)C(Cc3ccc(O)cc31)[C@H]2CO (mixture of isomers) | 1.53
69 | CCC(=O)O[C@@]12CCN(C)C(Cc3ccccc31)C2 (mixture of isomers) | 1.43
70 | C[C@H]1C2Cc3ccc(F)cc3[C@@]1(C)CCN2C (mixture of isomers) | 1.08
71 | C[C@H]1C2Cc3ccc(Cl)cc3[C@@]1(C)CCN2C (mixture of isomers) | 0.83
72 | C[C@H]1C2Cc3ccccc3[C@@]1(O)CCN2C (mixture of isomers) | 0.75
73 | C[C@H]1[C@H]2Cc3ccc(O)cc3[C@@]1(C)CCN2CC1CC1 (racemic) | 1.37
74 | C[C@H]1C2Cc3ccc(O)cc3[C@@]1(C)CCN2CCc1ccccc1 (stereo in doubt; 2) | 3.83
75 | CC[C@@H]1C2Cc3ccc(O)cc3[C@@]1(CC)CCN2C (stereo in doubt; 6) | 3.51
76 | C[C@@H]1C2Cc3ccc(O)cc3[C@@]1(c1ccccc1)CCN2C (stereo in doubt; 8) | 3.26
77 | C[C@@H]1C2Cc3ccc(O)cc3[C@@]1(C)CCN2C (stereo in doubt; 9) | 3.22
78 | CC[C@@]12CCN(C)C(Cc3ccc(O)cc31)C2 (stereo in doubt; 20) | 2.62
79 | CC[C@H]1C2Cc3ccc(O)cc3[C@@]1(C)CCN2C (stereo in doubt; 21) | 2.62
80 | CCC[C@@]12CCN(C)C(Cc3ccc(O)cc31)[C@@H]2C (stereo in doubt; 25) | 2.57
81 | CC[C@H]1C2Cc3ccc(O)cc3[C@@]1(CC)CCN2C (stereo in doubt; 30) | 2.35
82 | CN1CC[C@@]2(C)CC1Cc1ccc(O)cc12 (stereo in doubt; 31) | 2.16
83 | CC[C@H]1C2Cc3ccc(OC)cc3[C@@]1(CC)CCN2C (stereo in doubt; 42) | 1.81
84 | CN1CC[C@@]2(c3ccccc3)CC1Cc1ccccc12 (stereo in doubt; 44) | 1.77
85 | CN1CC[C@H]2CC1Cc1ccc(O)cc12 (stereo in doubt; 46) | 1.72
86 | C=CC#CCN1CC[C@]2(CC)c3cc(O)ccc3CC1[C@@H]2CC (stereo in doubt; 72) | 3.7
87 | C[C@H]1C2Cc3ccc(O)cc3[C@@]1(C)CCN2CCc1ccccc1 (stereo in doubt; 87) | 2.05
